For data set [1] the following is noted: early clinical practice; cited from earlier work.
For data set [2], the target named is T1, human GLP-1 receptor (Homo sapiens, UniProt P43220).
T1 construct: expressed in transfected cells
The experiment in a line: Stimulation of human GLP1 receptor stable transgenic cell line CHO-K1/GLP-1R/CRE-luc to produce cAMP (HTRF). In kind it is cell-based. Conditions: cAMP production, CHO-K1/GLP-1R/CRE-luc cells, 30 minutes incubation, 0.5 mM IBMX. From the text:
I. Determination of the Ability of the Compound of the Present Invention to Stimulate Human GLP1 Receptor Stable Transgenic Cell Lines to Produce cAMP
The purpose of this test example is to determine the ability of the compound to activate the human GLP-1 receptor on the cell surface. The EC50 that stimulates […] after agonism characterizes the compound's ability to activate the human GLP-1 receptor.
The frozen human GLP1 receptor stable transgenic cell line CHO-K1/GLP-1R/CRE-luc was taken from the liquid nitrogen tank, quickly thawed in a 37° C. water bath, resuspended with DMEM/F12 medium, centrifuged, and washed once. The cells were resuspended with the experimental buffer, namely DMEM/F12 medium containing 0.1% casein, and the experimental buffer was used to adjust the cell density. The cells were spread on spread on a 384-well plate at a density of 2500 cells/5 μL/well, and then to each well was added 2.5 μL of buffer-prepared IBMX working solution with a final concentration of IBMX of 0.5 mM, and 2.5 μL of the compound sample with gradient dilution (starting at 1000 nM, 3-fold dilution, 11 concentrations). The plate was centrifuged at 1000 rpm for 1 minute, shaken for 30 seconds to mix well, and incubated at room temperature for 30 minutes. Detection was performed using the Cisbio cAMP—Gs Dynamic kit. cAMP-d2 and Anti-cAMP-Eu^3+-Cryptate were diluted 20-fold with cAMP Lysis & Detection Buffer, respectively, and mixed well. To each well was added 5 μL diluted cAMP-d2 solution, and then added 5 μL diluted Anti-cAMP-Eu3^+-Cryptate solution. The plate was shaken for 30 seconds, and incubated at room temperature for 1 hour in the dark. The signal reading of HTRF was performed using the Biotek Synergy H1 microplate reader with an excitation wavelength of 320 nm and emission wavelengths of 620 nm and 665 nm.
The signal ratio (665 nm/620 nm*10,000) was calculated, and the signal ratio and sample concentration were nonlinearly fitted using a four-parameter equation in GraphPad Prism 6 to obtain the EC50 value.

The test system of data set [3] is GLP-1R humanized C57BL/6 mice fed with high-fat diet. The experiment in a line: Long-term administration: body weight and ingestion of GLP-1R humanized mice fed with high-fat diet. Type of data set: in vivo. Particulars: HFD mice; for Weight (g)-D0 Mean: Day 0 (day of first administration, baseline), 10 mg/kg oral once a day; for Eeight (g)-D10 Mean / Weight (g)-D10 Mean: Day 10, 10 mg/kg oral once a day; for Body weight change(%)-D10 Mean: Day 10 versus Day 0, 10 mg/kg oral once a day. The source says: The purpose of this test is to evaluate the effects of long-term administration of the compound on the body weight and ingestion of GLP-1R humanized C57BL/6 mice fed with high-fat diet.
C57BL/6_hGLP-1R, male, 5-8 weeks; 60% high-fat diet (HFD); Ultra-clean workbench; Electronic balance.
3.1 On the day of feeding with high-fat diet, C57BL/6 mice were randomly divided into two groups according to their weight. The first group was Blank, with 7 mice fed with normal control diet, while the remaining animals were in the modeling group, fed with high-fat diet, and continued until the end of the experiment.
3.2 At the 8th week of HFD feeding, the modeling group animals were randomly divided with 7 animals per group according to their weight. The first group was the Vehicle group (Vehicle: 0.5% CMC Na+1% Tween 80), which was given vehicle; The remaining group was the administration group; Administration regimen: Oral administration of the corresponding compound, administration cycle was 14 days, once a day for 14 days, with an administration dose of 10 mg/kg and an administration volume of 10 mL/kg. The Blank group continued to be fed with normal diet without any administration operation.
3.3 The day of administration was defined as Day 0.
3.4 During each administration, animals were weighed and data was recorded. Oral administration is performed according to body weight, with an administration volume of 10 mL/kg.
3.5 Starting from Day 0 of the experiment, the food intake of each group of mice was measured once every three days. Specifically, the feed was changed after each weighing and administration, and the added and remaining amounts were recorded.
3.6 On the end day of Day 14, all mice were euthanized sequentially according to grouping order, and the livers were dissected and weighed.
The weight and weight change rate of mice after administration were summarize and statistically analyzed. Weight change rate calculation: (BWt−BW0)/BW0×100%. BWt represents the weight of the mice on Day t of the experiment, and BW0 represents the weight of the mice on Day 0 of the experiment.
Calculation of food intake: (added amount (g)−remaining amount (g))/number of animals per cage, cumulative food intake is the sum of daily food intake of each animal during the administration period.
Experimental data were analyzed using GraphPad Prism software. The t-test method was used for comparison between the two groups. The one-way ANOVA method was used for comparisons between three or more groups.

The test system of data set [4] is GLP-1R humanized C57BL/6 mice. The experiment in a line: Intraperitoneal glucose tolerance (ipGTT) after single administration in GLP-1R humanized mice. Particulars: single administration 0.3 mg/kg, glucose 2 g/kg intraperitoneal 1 hour after administration, AUC 0-120 min, versus model control group. Type of data set: in vivo. The source says:
To evaluate the effect of single administration of the compound of the present invention on blood glucose changes in the intraperitoneal glucose tolerance (ipGTT) experiment in GLP-1R humanized C57BL/6 mice.
C57BL/6_hGLP-1R, male, 5-8 weeks; Ultra-clean workbench; Electronic balance; Vitality type blood glucose meter; Glucose.
3.1 On the day before the experiment, the animals were randomly divided according to their weight, with 5 animals per group. All animals were deprived of food overnight and fasted for more than 16 hours from the time of administration.
3.2 0.2 g/mL glucose solution was prepared with pure water and filtered by 0.22 µm filter membrane for use.
3.3 On the testing day, the blood glucose value of each animal was measured successively by tail clipping method before administration, which was recorded as Baseline value;
Blood glucose test method: the mouse was placed in the immobilizer, the tail tip was disinfected with an alcohol cotton ball, then a little tail tip was cut off with scissors, the first drop of blood was discarded, and the second drop of blood was dropped onto the prepared blood glucose test strip to detect the blood glucose value;
3.4 The animals were administered according to animal weight, and the administration time was record for each animal. After 1 hour of administration, the blood glucose value of each animal was measured sequentially, and recorded as the 0 minute blood glucose value;
3.5 Subsequently, according to the weight of the day, the aminals were immediately injected with pure water or glucose solution into the abdominal cavity, with a volume of 10 mL/kg and a glucose dose of 2 g/kg;
3.6 The blood glucose values of each mouse were measured, and the time and data were recorded after 15, 30, 60, 90, and 120 minutes of pure water or glucose solution injection;
The blood glucose (BG)-time curve was drawn, and the area under the blood glucose-time curve was calculated. The calculation formula is as follows: […]
Note: BG0, BG15, BG30, BG60, BG90, and BG120 represent blood glucose values before glucose administration (0 min) and 15, 30, 60, 90, and 120 min after glucose administration, respectively.
The blood glucose decline rate of AUC at each time point was calculated according to the average blood glucose value and AUC of blood glucose at each time point.

Data set [5] in a line: Pharmacokinetic assay of SD rats. In kind it is in vivo. Particulars: Sprague-Dawley, rat, po; male SD rats, plasma, dose 50 mg/kg (b1219 prints 5 mg/kg). The method, then: SD rats were used as test animals. The pharmacokinetic behavior of the following example compounds was studied in the plasma of rats administered orally at a dose of 50 mg/kg.
Vehicle formula: 0.5% CMC-Na (1% Tween 80);
Three SD rats per group, male. […]
Before and after administration, 0.2 mL of blood was collected from the jugular vein at 0, 0.25, 0.5, 1, 2, 4, 6, 8 and 24 hours, placed in EDTA-K2 tubes, centrifuged at 6000 rpm at 4° C. for 6 min to separate the plasma. The plasma samples were stored at −80° C. The […] was fed 4 hours after the administration.
• 1) 160 μL of acetonitrile was added to 40 μL of the plasma sample for precipitation, and then the mixture was centrifuged at 3500×g for 5-20 min. • 2) After the above process, 100 μL of the supernatant was taken to analyze the concentration of the test compound by LC/MS/MS.
• Liquid chromatography condition: Shimadzu LC-20AD pump Mass spectrometry condition: AB Sciex API 4000 mass spectrometer Chromatographic column: phenomenex Gemiu 5 μm C18 50×4.6 mm • Mobile phase: Eluent A was 0.1% formic acid in water, and Eluent B was methanol • Flow rate: 1.0 mL/min • Elution time: 0-4.0 minutes, the eluent is as follows:
The main pharmacokinetic parameters were calculated using WinNonlin 8.2.

Molecules are shown by their SMILES.

T1 sequence (P43220 24-463): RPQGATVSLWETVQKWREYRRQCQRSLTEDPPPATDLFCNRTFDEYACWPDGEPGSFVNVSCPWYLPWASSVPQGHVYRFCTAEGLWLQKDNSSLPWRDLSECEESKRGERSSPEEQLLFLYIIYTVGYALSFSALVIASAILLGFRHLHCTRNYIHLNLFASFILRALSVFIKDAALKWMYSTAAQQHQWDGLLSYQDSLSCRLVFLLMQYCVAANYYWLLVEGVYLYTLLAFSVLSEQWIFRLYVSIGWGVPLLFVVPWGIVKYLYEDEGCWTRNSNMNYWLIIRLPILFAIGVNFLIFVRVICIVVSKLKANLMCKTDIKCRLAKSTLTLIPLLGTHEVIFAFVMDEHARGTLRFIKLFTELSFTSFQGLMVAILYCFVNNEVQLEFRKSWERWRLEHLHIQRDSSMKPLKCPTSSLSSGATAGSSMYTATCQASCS

As to `N#Cc1ccc(COc2cccc(C3CCN(Cc4nc5ccc(C(=O)O)cc5n4C[C@@H]4CCO4)CC3)n2)c(F)c1` [PF-06882961], in data set [1], the “hypoglycemic and weight reducing effects” value was “significant hypoglycemic and weight reducing effects”.
The term EC50 denotes the concentration giving half of the maximal effect. In general, AUC(0-inf) refers to the area under the concentration-time curve extrapolated to infinity. A lower AUC(0-inf) goes with low exposure. As a reminder, the AUC(0-t) is the area under the concentration-time curve up to a stated or last time point. By Cmax is commonly meant the peak of the concentration-time curve. By Tmax is commonly meant the time at which the peak concentration occurs. One may read the half-life as how long it takes for the measured level to halve. Low readings indicate fast loss, high ones slow loss. In the case of `O=C(O)c1ccc2nc(CN3CCC(c4cccc5c4O[C@@H](c4ccc(Cl)cc4F)C=C5)CC3)n(C[C@@H]3CCO3)c2n1` [Example 48, 2-((4-((R)-2-(4-Chloro-2-fluorophenyl)-2H-chromen-8-yl)piperidin-1-yl)methyl)-3-(((S)-oxetan-2-yl)methyl)-3H-imidazolo[4,5-b]pyridine-5-carboxylic acid], the EC50 in data set [2] is 0.03 nM. In data set [3] (the 4th table), the “Weight (g)-D0 Mean” value stood at 28.23 g, the “Eeight (g)-D10 Mean” value amounted to 25.85 g and the “Body weight change(%)-D10 Mean” value is −8.44%. Moreover, in data set [4], the “Blood glucose decline rate of AUC %” value was found to be 62.89%. In addition, in data set [5], the total exposure AUC(0-inf) came to 19100 ng·h/mL, the AUC(0-t) is 19100 ng·h/mL, the peak concentration (Cmax) amounted to 6400 ng/mL and the time of peak concentration (Tmax) stood at 2 h. The half-life in data set [5] is 3.8 h.
Consider `[2H]C([2H])([2H])Oc1cc(Cl)ccc1[C@@]1([2H])C=Cc2cccc(C3CCN(Cc4nc5ccc(C(=O)O)nc5n4C[C@@H]4CCO4)CC3)c2O1` [Example 43, 2-((4-((R)-2-(4-Chloro-2-(methoxy-d3)phenyl)-2H-chromen-8-yl-2-d)piperidin-1-yl)methyl)-3-(((S)-oxetan-2-yl)methyl)-3H-imidazolo[4,5-b]pyridine-5-carboxylic acid], for which the EC50 in data set [2] worked out at 0.05 nM. Besides, in data set [3] (the 4th table), the “Weight (g)-D0 Mean” value amounted to 28.37 g, the “Eeight (g)-D10 Mean” value worked out at 26.57 g and the “Body weight change(%)-D10 Mean” value was −6.37%. Also, in data set [4], the “Blood glucose decline rate of AUC %” value amounted to 46.57%.
For `[2H][C@]1(c2ccc(Cl)cc2F)C=Cc2cccc(C3CCN(Cc4nc5ccc(C(=O)O)nc5n4C[C@@H]4CCO4)CC3)c2O1` [Example 42, 2-((4-((R)-2-(4-Chloro-2-fluorophenyl)-2H-chromen-8-yl-2-d)piperidin-1-yl)methyl)-3-(((S)-oxetan-2-yl)methyl)-3H-imidazolo[4,5-b]pyridine-5-carboxylic acid], the EC50 in data set [2] is 0.07 nM. Also, in data set [3] (the 3rd table), the “Weight (g)-D0 Mean” value is listed as 28.54 g, the “Weight (g)-D10 Mean” value was 26.04 g and the “Body weight change(%)-D10 Mean” value is given as −8.75%. Also, the “Blood glucose decline rate of AUC %” value in data set [4] turned out to be 56.79%.
In the same order, the values of `[2H]C([2H])([2H])Oc1cc(Cl)ccc1[C@@]1([2H])C=C(F)c2cccc(C3CCN(Cc4nc5ccc(C(=O)O)nc5n4C[C@@H]4CCO4)CC3)c2O1` [Example 41, 2-((4-((R)-2-(4-Chloro-2-(methoxy-d3)phenyl)-4-fluoro-2H-chromen-8-yl-2-d)piperidin-1-yl)methyl)-3-(((S)-oxetan-2-yl)methyl)-3H-imidazolo[4,5-b]pyridine-5-carboxylic acid] are 0.04 nM, 28.54 g, 26.20 g, −8.19% and 53.09%.

These data come from patent US20240360109A1 (SHANGHAI HANSOH BIOMEDICAL CO., LTD., priority 2021, published 2024).
